The term IC50 denotes the concentration needed to halve the response being measured.

The text below walks through data of patent publication US20230348444A1, “NOVEL COMPOUNDS FOR USE IN THE TREATMENT OF DISEASES ASSOCIATED WITH ANGIOTENSIN II” (Vicore Pharma AB, priority 2020, published 2023).

Molecules are shown by their SMILES. Read-outs that look alike come from different tables or passages of the source. A value given as a limit tells only on which side of the number the result lay.

The target of data set [1] is T1, human recombinant AT1 receptor (Homo sapiens, UniProt P30556).
T1 sequence (P30556 1-359): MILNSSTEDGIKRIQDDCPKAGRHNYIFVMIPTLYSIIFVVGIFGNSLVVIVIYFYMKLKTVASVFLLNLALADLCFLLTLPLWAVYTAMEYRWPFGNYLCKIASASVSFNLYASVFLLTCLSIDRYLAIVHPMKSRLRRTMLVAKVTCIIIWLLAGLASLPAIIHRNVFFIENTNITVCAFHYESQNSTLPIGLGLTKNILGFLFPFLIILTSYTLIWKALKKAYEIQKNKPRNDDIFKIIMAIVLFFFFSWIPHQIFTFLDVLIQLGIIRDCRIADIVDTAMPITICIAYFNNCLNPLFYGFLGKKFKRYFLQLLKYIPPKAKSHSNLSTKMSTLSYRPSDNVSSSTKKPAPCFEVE
The data set is described as follows: biochemical.
Procedure: (§3) Compounds were evaluated for binding to the human recombinant AT2 and AT1 receptor according to Eurofins protocol ITEM26 and ITEM24 using a radiometric scintillation assay.

In data set [2] the target is T2, human recombinant AT2 receptor (Homo sapiens, UniProt P50052).
T2 sequence (P50052 1-363): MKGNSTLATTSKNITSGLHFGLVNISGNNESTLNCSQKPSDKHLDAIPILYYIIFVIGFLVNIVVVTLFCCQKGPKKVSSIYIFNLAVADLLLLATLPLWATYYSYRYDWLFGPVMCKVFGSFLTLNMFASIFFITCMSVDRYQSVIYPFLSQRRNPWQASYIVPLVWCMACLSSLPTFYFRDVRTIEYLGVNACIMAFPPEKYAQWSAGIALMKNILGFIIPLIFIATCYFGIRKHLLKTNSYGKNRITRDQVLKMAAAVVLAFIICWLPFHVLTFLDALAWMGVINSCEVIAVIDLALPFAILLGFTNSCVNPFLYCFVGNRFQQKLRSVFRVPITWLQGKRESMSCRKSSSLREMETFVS
Briefly: biochemical.
Procedure: as §3

The nature of data set [3]: Metabolic hydrolysis of C21 found during development. Format: in vitro ADME. Particulars: statement in words.
Data set [4] has as its target T3, CYP3A4 (Homo sapiens, UniProt P08684). The data set is described as follows: CYP inhibition of C21 found during development. Format: in vitro ADME. Particulars: statement in words.
Data set [5] concerns the target T4, CYP2C9 (Homo sapiens, UniProt P11712). Briefly: CYP inhibition of C21 found during development. The note with it: statement in words. It is filed as in vitro ADME.
The next data set addresses T5, CYP2B6 (Homo sapiens, UniProt P20813).
T5 construct: using isoform-specific substrates incubated with human liver microsomes; tissue Eurofins ITEMG232; host or cells: human liver microsomes
T5 sequence (P20813 1-491): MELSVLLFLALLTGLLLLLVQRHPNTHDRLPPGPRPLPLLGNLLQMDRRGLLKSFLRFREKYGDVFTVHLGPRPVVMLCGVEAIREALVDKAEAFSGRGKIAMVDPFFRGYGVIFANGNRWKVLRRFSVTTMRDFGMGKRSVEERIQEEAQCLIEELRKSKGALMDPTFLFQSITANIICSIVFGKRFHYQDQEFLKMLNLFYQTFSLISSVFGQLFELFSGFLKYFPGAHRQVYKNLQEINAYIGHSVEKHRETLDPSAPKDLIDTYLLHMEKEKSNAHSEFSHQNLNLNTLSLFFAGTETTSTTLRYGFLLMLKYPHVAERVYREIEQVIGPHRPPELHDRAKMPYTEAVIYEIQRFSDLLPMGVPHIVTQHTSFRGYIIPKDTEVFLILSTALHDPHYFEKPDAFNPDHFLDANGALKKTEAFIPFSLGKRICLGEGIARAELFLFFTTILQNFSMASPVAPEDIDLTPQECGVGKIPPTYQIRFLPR
The data set is described as follows: CYP inhibition in human liver microsomes (Eurofins protocol ITEMG232). It is filed as in vitro ADME. The note with it: substrate bupropion; for inhibition at 10 µM: probe bupropion, read-out: CYP2B6 Inh %. Here is the method:
(§1) The following substrates were used; CYP1A phenacetin, CYP2B6 bupropion, CYP2C8 paclitaxel and amodiaquine, CYP2C9 diclofenac, CYP2C19 omeprazole, CYP2D6 dextromethorphan, CYP3A midazolam and testosterone.
(§2) At the end of the incubation, the formation of metabolite was monitored by HPLC-MS/MS as the peak area response.
On the technique in general: Liver microsomes are vesicles of endoplasmic reticulum, rich in cytochrome P450 enzymes.

A further data set concerns the target T6, CYP1A (Homo sapiens, UniProt P05177).
T6 construct: using isoform-specific substrates incubated with human liver microsomes; tissue Eurofins ITEMG232; host or cells: human liver microsomes
T6 sequence (P05177 2-516 limits assumed): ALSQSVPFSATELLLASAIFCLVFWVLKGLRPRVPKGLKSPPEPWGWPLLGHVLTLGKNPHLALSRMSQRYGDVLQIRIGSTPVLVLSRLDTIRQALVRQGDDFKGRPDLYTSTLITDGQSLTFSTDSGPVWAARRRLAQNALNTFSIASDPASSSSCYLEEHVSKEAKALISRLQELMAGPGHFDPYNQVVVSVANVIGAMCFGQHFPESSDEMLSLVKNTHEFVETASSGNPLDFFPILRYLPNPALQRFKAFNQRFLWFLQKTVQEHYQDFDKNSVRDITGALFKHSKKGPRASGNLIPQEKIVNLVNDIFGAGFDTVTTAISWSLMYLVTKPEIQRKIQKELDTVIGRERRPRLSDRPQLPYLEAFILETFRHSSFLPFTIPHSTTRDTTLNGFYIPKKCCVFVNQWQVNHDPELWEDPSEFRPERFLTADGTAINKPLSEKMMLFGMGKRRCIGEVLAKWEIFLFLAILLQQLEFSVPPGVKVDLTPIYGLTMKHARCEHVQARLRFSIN
Described as above. It is filed as in vitro ADME. The note with it: substrate phenacetin; for inhibition at 10 µM: probe phenacetin, read-out: CYP1A Inh %. How it is done:
as §1, §2

The target in the next data set is T7, CYP2C8 (Homo sapiens, UniProt P10632).
T7 construct: using isoform-specific substrates incubated with human liver microsomes; tissue Eurofins ITEMG232; host or cells: human liver microsomes
T7 sequence (P10632 1-490): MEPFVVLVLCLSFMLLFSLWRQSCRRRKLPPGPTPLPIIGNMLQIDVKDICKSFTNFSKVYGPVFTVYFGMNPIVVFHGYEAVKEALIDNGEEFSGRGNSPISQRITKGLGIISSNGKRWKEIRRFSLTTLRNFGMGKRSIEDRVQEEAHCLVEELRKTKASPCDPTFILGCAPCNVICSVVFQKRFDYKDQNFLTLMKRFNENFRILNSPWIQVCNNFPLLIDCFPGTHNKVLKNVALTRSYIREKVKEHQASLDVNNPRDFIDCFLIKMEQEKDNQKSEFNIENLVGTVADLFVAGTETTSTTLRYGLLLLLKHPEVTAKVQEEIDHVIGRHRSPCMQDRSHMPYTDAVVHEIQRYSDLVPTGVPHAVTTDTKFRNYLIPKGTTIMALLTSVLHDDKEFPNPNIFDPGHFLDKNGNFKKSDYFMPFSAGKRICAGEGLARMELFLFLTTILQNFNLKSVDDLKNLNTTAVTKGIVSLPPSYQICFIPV
The description is as above. The note with it: substrates paclitaxel and amodiaquine; for inhibition at 10 µM: probe paclitaxel and amodiaquine, read-out: CYP2C8 Inh %. It is filed as in vitro ADME. Here is the method:
as §1, §2

Another data set has as its target T8, CYP2D6 (Homo sapiens, UniProt P10635).
T8 construct: tissue Eurofins ITEMG232; host or cells: human liver microsomes
The data set is described as above. It is filed as in vitro ADME. The note with it: substrate dextromethorphan; for inhibition at 10 µM: probe dextromethorphan, read-out: CYP2D6 Inh %. How it is done:
as §1, §2

Data set [6] deals with T3, CYP3A4. Briefly: CYP inhibition in human liver microsomes (Eurofins protocol ITEMG232), midazolam substrate. It is filed as in vitro ADME. The arrangement: using isoform-specific substrates incubated with human liver microsomes; tissue Eurofins ITEMG232; host or cells: human liver microsomes. The note with it: for inhibition at 10 µM: probe midazolam, read-out: CYP3A4 midazolam Inh %. Here is the method:
as §1, §2

The subject of another data set is CYP3A4&5. Briefly: CYP inhibition in human liver microsomes (Eurofins protocol ITEMG232), testosterone substrate. The note with it: probe testosterone, read-out: CYP3A4&5 testosterone Inh %. It is filed as in vitro ADME. Here is the method: as §1, §2
Data set [7] in a line: Metabolic stability in pooled human liver microsomes with or without NADPH. It is filed as in vitro ADME. Particulars: human, pooled human liver microsomes, pooled human liver microsomes 0.5 mg/mL in PBS, 1 uM test compound, 37° C. Here is the method:
Pooled human liver microsomes in PBS at a concentration of 0.5 mg/mL was incubated with or without 1 mM NADPH for 70 min at 37° C. Test compound was added after 10 minutes to a final concentration of 1 uM. Samples were withdrawn at 0, 5, 15 and 60 minutes and added to test tubes containing acetonitrile, to stop the reaction, and with terfenadine, used as internal standard. After centrifugation at 10000×g for 5 minutes the supernatant was diluted 1:1 with 1% formic acid. Samples were separated on a reverse phase column and detected by triple quadrupole MSMS (Agilant model 6540). The concentration of the parent compound at the different time points was measured with an external standard curve using terfenadine as internal standard and the initial metabolic rate in the presence or absence of NADPH calculated.

The target in data set [8] is T4, CYP2C9. Briefly: CYP inhibition in human liver microsomes (Eurofins protocol ITEMG232). It is filed as in vitro ADME. The arrangement: using isoform-specific substrates incubated with human liver microsomes; tissue Eurofins ITEMG232; host or cells: human liver microsomes. The note with it: probe diclofenac, substrate diclofenac, read-out: CYP2C9 Inh %. How it is done:
as §1, §2

The target of the next data set is T9, CYP2C19 (Homo sapiens, UniProt P33261).
T9 construct: using isoform-specific substrates incubated with human liver microsomes; tissue Eurofins ITEMG232; host or cells: human liver microsomes
T9 sequence (P33261 whole entry, canonical isoform): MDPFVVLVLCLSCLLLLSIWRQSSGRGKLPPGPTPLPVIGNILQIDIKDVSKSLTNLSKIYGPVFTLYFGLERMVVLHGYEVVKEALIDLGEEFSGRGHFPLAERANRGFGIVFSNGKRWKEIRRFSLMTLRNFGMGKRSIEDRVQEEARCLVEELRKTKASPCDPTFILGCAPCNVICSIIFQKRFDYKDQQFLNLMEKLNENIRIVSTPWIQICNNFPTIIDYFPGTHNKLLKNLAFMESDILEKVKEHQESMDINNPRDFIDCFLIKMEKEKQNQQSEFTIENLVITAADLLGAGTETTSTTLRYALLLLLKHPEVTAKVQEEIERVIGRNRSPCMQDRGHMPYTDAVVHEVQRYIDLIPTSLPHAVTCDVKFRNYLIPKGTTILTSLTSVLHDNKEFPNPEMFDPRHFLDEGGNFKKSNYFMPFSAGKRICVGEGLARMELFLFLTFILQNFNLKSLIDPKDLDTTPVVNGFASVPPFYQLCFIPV
Described as above. The note with it: probe omeprazole, substrate omeprazole, read-out: CYP2C19 Inh %. It is filed as in vitro ADME. How it is done: as §1, §2

The mark [9] stands for this setting: with 1 mM NADPH, read-out: T1/2, +NaDPH.
The mark [10] stands for this setting: without NADPH, read-out: T1/2, no NaDPH.

T4 sequence (P11712 whole entry): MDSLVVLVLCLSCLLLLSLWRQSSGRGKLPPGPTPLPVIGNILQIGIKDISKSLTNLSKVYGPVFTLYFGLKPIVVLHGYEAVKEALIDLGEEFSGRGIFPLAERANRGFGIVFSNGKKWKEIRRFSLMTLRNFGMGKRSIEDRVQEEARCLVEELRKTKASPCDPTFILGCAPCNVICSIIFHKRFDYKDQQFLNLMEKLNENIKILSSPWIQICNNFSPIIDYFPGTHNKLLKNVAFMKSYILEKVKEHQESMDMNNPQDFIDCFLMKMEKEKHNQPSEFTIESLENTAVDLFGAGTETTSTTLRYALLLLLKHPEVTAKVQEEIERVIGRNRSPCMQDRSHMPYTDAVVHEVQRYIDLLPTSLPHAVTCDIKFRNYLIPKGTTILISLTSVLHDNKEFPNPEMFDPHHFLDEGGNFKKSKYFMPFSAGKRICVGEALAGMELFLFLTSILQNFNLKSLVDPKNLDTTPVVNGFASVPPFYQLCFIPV
T8 sequence (P10635 whole entry): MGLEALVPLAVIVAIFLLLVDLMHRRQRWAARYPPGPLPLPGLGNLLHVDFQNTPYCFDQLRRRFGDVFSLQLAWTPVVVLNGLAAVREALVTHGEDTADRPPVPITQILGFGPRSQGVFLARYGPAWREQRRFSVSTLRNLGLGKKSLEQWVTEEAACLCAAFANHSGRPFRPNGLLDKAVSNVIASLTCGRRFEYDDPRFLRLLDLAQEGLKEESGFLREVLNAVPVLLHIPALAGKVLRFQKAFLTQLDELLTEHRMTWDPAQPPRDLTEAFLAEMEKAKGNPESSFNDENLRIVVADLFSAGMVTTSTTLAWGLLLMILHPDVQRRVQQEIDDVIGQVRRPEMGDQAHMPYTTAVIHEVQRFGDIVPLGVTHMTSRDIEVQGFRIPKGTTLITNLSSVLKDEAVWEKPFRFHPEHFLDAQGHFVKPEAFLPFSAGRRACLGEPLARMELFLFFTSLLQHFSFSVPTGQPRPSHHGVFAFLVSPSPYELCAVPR
T3 sequence (P08684 whole entry): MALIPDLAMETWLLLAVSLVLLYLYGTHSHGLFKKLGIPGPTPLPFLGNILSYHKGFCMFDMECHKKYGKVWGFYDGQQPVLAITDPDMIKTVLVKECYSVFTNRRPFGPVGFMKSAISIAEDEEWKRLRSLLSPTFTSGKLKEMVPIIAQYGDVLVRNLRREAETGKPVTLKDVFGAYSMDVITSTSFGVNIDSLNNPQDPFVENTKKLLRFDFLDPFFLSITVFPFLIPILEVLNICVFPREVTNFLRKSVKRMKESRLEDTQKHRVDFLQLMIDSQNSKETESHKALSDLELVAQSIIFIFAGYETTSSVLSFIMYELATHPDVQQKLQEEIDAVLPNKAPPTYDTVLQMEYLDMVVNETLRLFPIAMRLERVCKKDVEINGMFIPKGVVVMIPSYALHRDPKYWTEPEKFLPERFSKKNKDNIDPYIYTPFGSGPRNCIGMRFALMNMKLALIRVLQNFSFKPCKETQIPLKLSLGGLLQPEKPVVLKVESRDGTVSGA

For `Cc1nccn1Cc1ccc(-c2cc(CC(C)C)sc2S(=O)(=O)NC(=O)OCCOc2ccccc2)cc1F` [Example 9, 2-Phenoxyethyl (3-(3-fluoro-4-((2-methylimidazol-1-yl)methyl]phenyl)-5-isobutyl-2-thienyl)sulfonylcarbamate], the IC50 was above 1000 nM in data set [1] and 3.4 nM in [2].
In the case of `CCCCOC(=O)NS(=O)(=O)c1sc(CC(C)C)cc1-c1ccc(Cn2ccnc2)cc1` [Example C21, N-butyloxycarbonyl-3-(4-imidazol-1-ylmethylphenyl)-5-isobutylthiophene-2-sulfon-amide, reference compound], the “hydrolysis to an inactive sulfonamide metabolite” value in data set [3] was “rapidly hydrolysed”. The “inhibition of CYP 3A4” value against CYP3A4 [4] is on record as “potent inhibitor”. For the same molecule, on CYP2C9 [5], the “inhibition of CYP 2C9” value is on record as “potent inhibitor”. The “CYP2B6 Inh %” value on CYP2B6 (10 μM) came to 49%. For the same molecule, the “CYP1A Inh %” value at CYP1A (10 μM) amounted to 91%. For the same molecule, the “CYP2C8 Inh %” value on CYP2C8 (10 μM) is listed as 80%. In addition, the “CYP2D6 Inh %” value on CYP2D6 (10 μM) is on record as 81%. Besides, on CYP3A4 [6] (10 μM), the “CYP3A4 midazolam Inh %” value was found to be 95%. The inhibition at 10 µM with CYP3A4&5 came out at 94%. Further, the half-life at 1 uM in [7] (setting [9]) was 35 min; in data set [7] (setting [10]), 31 min.
Take `CCc1nccn1Cc1ccc(-c2cc(CC(C)C)sc2S(=O)(=O)NC(=O)OC)cc1F` [Example 25, Methyl (3-(4-((2-ethyl-1H-imidazol-1-yl)methyl)-3-fluorophenyl)-5-isobutylthiophen-2-yl)sulfonylcarbamate]: the inhibition at 10 µM turned out to be 50.4% on CYP2C9 [8]; 20% at CYP2B6; 23.5% at CYP1A; 21.9% on CYP2C8; 17.1% on CYP2D6; 0.5% at CYP2C19. The inhibition at 10 µM at CYP3A4 [6] was -28.7%; in the data set with CYP3A4&5, 26.6%. The half-life at 1 uM in data set [7] (setting [9]) and in data set [7] (setting [10]) was above 60 min throughout.
Turning to `COC(=O)NS(=O)(=O)c1sc(CC(C)C)cc1-c1ccc(Cn2ccnc2C)c(F)c1` [Example 21, Methyl (3-(3-fluoro-4-((2-methyl-1H-imidazol-1-yl)methyl)phenyl)-5-isobutyl-thio-phen-2-yl)sulfonylcarbamate], the inhibition at 10 µM on CYP2C9 [8] was found to be 51.4%; on CYP2B6, 16.6%; at CYP1A it was 58.7%; at CYP2C8, 44.2%; on CYP2D6, 16.3%; at CYP2C19, 13.8%. For the same molecule, the inhibition at 10 µM on CYP3A4 [6] was -48%; in the data set with CYP3A4&5, 8%. For the same molecule, the half-life at 1 uM in data set [7] (setting [9]) and in [7] (setting [10]) was above 60 min each time.
